Test results reported in paper PMC3554773, “Screening of a Specific Peptide Binding to VPAC1 Receptor from a Phage Display Peptide Library” (PLoS ONE, 2013).
No end group written: not given here.

Key:
[1] = target: T1, VPAC1 receptor (CHO-K1/VPAC1 cells) (Homo sapiens, UniProt P32241); test: in vitro subtractive panning of 12-mer phage display peptide library on CHO-K1/VPAC1 cells, DNA sequencing of clones; format: binding; conditions: 60 phage clones randomly selected after fourth round of panning; three lacked exogenous sequence
T1 construct: expressed in transfected cells
T1 sequence (P32241 31-457): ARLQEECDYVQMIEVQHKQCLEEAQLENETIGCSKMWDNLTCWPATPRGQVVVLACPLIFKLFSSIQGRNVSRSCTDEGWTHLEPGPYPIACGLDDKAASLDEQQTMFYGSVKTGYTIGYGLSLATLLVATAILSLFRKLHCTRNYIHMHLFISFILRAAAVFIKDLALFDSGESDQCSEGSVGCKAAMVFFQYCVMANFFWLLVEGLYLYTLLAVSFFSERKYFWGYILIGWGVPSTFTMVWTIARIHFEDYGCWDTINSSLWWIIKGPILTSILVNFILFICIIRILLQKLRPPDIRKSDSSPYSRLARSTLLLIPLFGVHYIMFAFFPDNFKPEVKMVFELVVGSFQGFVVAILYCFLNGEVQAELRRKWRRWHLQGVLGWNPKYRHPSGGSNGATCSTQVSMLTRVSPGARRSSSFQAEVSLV

[2] = target: T1, VPAC1 receptor (CHO-K1/VPAC1 cells); test: cellular ELISA, binding of phage clones to CHO-K1/VPAC1 versus wild-type CHO-K1 cells; conditions: 1×10^10 pfu/well, 37°C, 2 h, HRP-anti-M13, glutaral-fixed cells, triplicate, p<0.01
[3] = target: T1, VPAC1 receptor (CHO-K1/VPAC1 cells); test: competitive inhibition ELISA: binding of positive phage clone VP2 to CHO-K1/VPAC1 cells, inhibited by synthetic peptide
Procedure: Competitive binding inhibition between the positive phage clone and its encoded peptide was evaluated in this study using the competitive inhibition ELISA method. The procedure was similar to that of the cellular ELISA mentioned above in “Cell enzyme-linked immunosorbent assay”. Briefly, CHO-K1/VPAC1 cells were incubated with 100 µl of synthetic peptide encoded by the positive phage clone at various concentrations (0, 0.0001, 0.001, 0.01, 0.1, 1, 10 and 100 µg/ml) in a 96-well plate after it was blocked with 2% BSA. Subsequently, 1×10^10 pfu homologous positive phage clones was added to the cells and incubated at 37°C for 2 h. The unbound phages were washed away, and an HRP-conjugated anti-M13 monoclonal antibody was used to detect the bound phages as described above. The rate of inhibition was calculated using the following formula: rate of inhibition = (A value of inhibition control – A value of inhibition)/A value of inhibition control×100%. An unrelated peptide corresponding to an unrelated phage was used as a negative control.

Sequence	Frequency (number of the peptide sequence appeared in the whole selected phage clones) [1]	binding affinity to CHO-K1/VPAC1 cells compared with CHO-K1 cells (OD450 nm) [2]	also measured
AYTTVPYMATLP [VP9]	1		
DTFHSPLVALVS [VP5]	5	higher affinity to CHO-K1/VPAC1 cells than CHO-K1 cells	
DTGHSPEPGKVP [VP13]	1		
ETVRQAEELFYV [VP7]	1		
GFRFGALHEYNS [VP2]			IC50 of VP2 peptide compared with IC50 of VIP ([3]; inhibition of phage VP2 binding to CHO-K1/VPAC1 cells, VIP value from Figure 5A): significantly lower than the IC50 of VIP; IC50 ([3]; peptide 0-100 µg/ml, 1×10^10 pfu phage VP2, 37°C, 2 h): ~0.0132 µM
GGSIAASELEYY [VP10]	2	higher affinity to CHO-K1/VPAC1 cells than CHO-K1 cells	
GSFHSPLLAYVS [VP12]	1		
GTFHSPLLDHKS [VP14]	1		
GWLRSPSLLFSN [VP16]	2	higher affinity to CHO-K1/VPAC1 cells than CHO-K1 cells	
GYTFQPLNEWAI [VP18]	1		
HSTLKLGALTNY [VP11]	1		
NSIALINDTHKR [VP3]	2		
SFRFFPLDMWPH [VP8]	5	higher affinity to CHO-K1/VPAC1 cells than CHO-K1 cells	
TVKYSTLVEWPY [VP1]	8	higher affinity to CHO-K1/VPAC1 cells than CHO-K1 cells	
TVTFAPLRMWHP [VP15]	1		
TWKFEPLGTFID [VP4]	3		
TYTFRPLYEPPL [VP17]	1		
YTSHFPLETWPQ [VP6]	5	higher affinity to CHO-K1/VPAC1 cells than CHO-K1 cells	
